Experimental data reported in patent US20180237745A1, “METHOD FOR CONTROLLING DIFFERENTIATION OF STEM CELLS” (GUANGZHOU INSTITUTES OF BIOMEDICINE AND HEALTH, CHINESE …, priority 2015, published 2018).

B1: Activin A (protein, UniProt P08476 311-426, looked up)
Inhibin beta A chain: GLECDGKVNICCKKQFFVSFKDIGWNDWIIAPSGYHANYCEGECPSHIAGTSGSSLSFHSTVINHYRMRGHSPFANLKSCCVPTKLRPMSMLYYDDGQNIIKKDIQNMIVEECGCS
modifications: Inhibin beta A chain
notes: growth factor (Peprotech) used to induce definitive endoderm differentiation of hESCs

How the values were obtained:
human H1 ES cells [1] = experiment: Bulk real-time qRT-PCR of marker genes in Activin A induced hESCs; format: cell-based
Procedure: Immunofluorescence staining.
Total RNA was extracted using the Trizol reagent (MRC, TR1187) and 2 μg of total RNA was reverse-transcribed using the ReverTraAce Kit (TOYOBO, 34520B1). The product (cDNA) was properly diluted and used as PCR template. PCR reactions were performed with the SYBR®Premix Ex Taq™ Kit (TAKARA, RR420A) on the CFX96 Touch™ Real-Time PCR Detection System (Bio-Rad). GAPDH was used as the internal control. Three to four biological replicates were performed for each assay and data represents mean±SD.
Culturing condition during differentiation is as follows.

H1-derived cells = conditions: day 3 cells induced by Activin A in the presence of RepSox, compared to DE cells
Source text: Scratch assay was used to determine the migration activity of H1-derived cells. Briefly, cells in a confluent monolayer were scratched with a needle to form a cell-free zone into which cells at the edges of the wound can migrate. The denuded area was imaged to measure the boundary of the wound at pre-migration. Images of cell movement were captured at regular intervals within a 24-48 hr period for data analysis.

human H1 ES cells [2] = tested on: human H1 ES cells
Procedure: Undifferentiated human H1 ES cells were maintained in monolayer culture on Matrigel (BD Biosciences, 354277) in mTeSR1 medium (Stemcell Technologies, 05850) at 37° C. with 5% CO2. Cells were manually passaged at 1:4 to 1:6 split ratios every 3 to 5 days. For hepatic differentiation, we established a serum-free protocol based on previously described protocols with minor modifications^8, 9. Briefly, H1 cells were cultured for 3 days in RPMI/B27 medium (Insulin minus, Gibco, A18956-01) supplemented with 100 ng/ml Activin A (Peprotech, A120-14E), followed by 4 days with 20 ng/ml BMP2 (Peprotech, 120-02) and 30 ng/ml FGF-4 (Peprotech, 100-31) in RPMI/B27 (complete with Insulin, Gibco, 17504-044) medium, then 6 days with 20 ng/ml HGF (Peprotech, 100-39) and KGF (Peprotech, 100-19) in RPMI/B27 (complete with Insulin), then 8 days with 20 ng/ml Oncostatin-M (R&D Systems, 295-OM/CF) in Hepatocyte Culture Media (Lonza, cc-3198) supplemented with SingleQuots (without EGF). Immunofluorescence staining.
Single cell qPCR was performed using a Fluidigm C1 and BioMark HD as described by the manufacturer. Briefly, a cell suspension of a concentration of 166˜250 K/mL was loaded into a 10-17 μm C1™ Single-Cell Auto Prep IFC chamber (Fluidigm, PN100-5479), and cell capture was performed on the Fluidigm C1™ System. Both the empty wells and doublet-occupied wells were excluded from further analysis. Upon capture, reverse transcription and cDNA pre-amplification were performed using the Ambion Single Cell-to-CT Kit (Life Technologies, PN 4458237) and C1™ Single-Cell Auto Prep Module 2 Kit (Fluidigm, PN100-5519). The pre-amplified products were diluted 10-fold prior to analysis with TaqMan® Gene Expression Master Mix (Life Technologies, 4369016) and inventoried TaqMan® Gene Expression assays (20×, Applied Biosystems) in 96.96 dynamic Arrays™ on a BioMark System (Fluidigm). Inventoried TaqMan primers were used for single-cell qPCR. Relative expression was calculated as described in Buganim et al., 2012^22 except that a Ct value of 25 was used for low expressed genes. Relational network plots (mdsquish) were implemented as part of glbase^21 and will be described in detail elsewhere. Briefly, the normalized Euclidean distance between all cells was measured for singular value decomposed principal components 2, 3, 4 and 5. A network was then constructed using a threshold of 0.92 for weak links (dotted lines) and 0.99 for strong links (solid lines) with a maximum of the 50 best scoring edges per node, the network was then laid out using graphviz ‘neato’ layout. Node sizes are 2^[relative expression].
Culturing condition during differentiation is as follows. Nearly 50% confluent undifferentiated human H1 ES cells obtained from ATCC were passaged by Accutase 24 hr after seeding, cells were almost 90% confluent at 37° C. with 5% CO2. Then H1 cells were cultured for 3 days in RPMI/B27 medium (Insulin minus) supplemented with 100 ng/ml Activin A in the presence of 2 μM Repsox or not.
TGFβ-signaling inhibitor RepSox was added with a final concentration of 2 μM at day 0 from the start of differentiation of hESCs.
Expression of various markers of definite layer type cells, i.e., SOX1/PAX6 (ectoderm markers), GATA2/BMP4 (mesoderm markers), and SOX17/FOXA2 (endoderm markers) were tested during differentiation to evaluate the differentiated cells.

TGFβ = experiment: ELISA of TGFβ protein in Activin A stimulated H1 cell culture media; format: cell-based, human; conditions: day 3 cells, Activin A (FIG. 4A)
Procedure: The protein level of TGFβ in the Activin A stimulated H1 cell culture media was determined with an ELISA Kit (R&D Systems, DB100B) as described by the manufacturer.

Molecule | expression of CDH1 (human H1 ES cells [1]; qRT-PCR (FIG. 4D)) | expression of CDH2, SNAI1, SNAI2, ZEB1, KLF8 and VIM (human H1 ES cells [1]; qRT-PCR (FIG. 4D)) | expression of mesendoderm/endoderm markers GSC, EOMES, MIXL1, SOX17, FOXA2, GATA4, GATA6, HHEX and LGR5 (human H1 ES cells [1]; qRT-PCR (FIG. 4D)) | other lineage markers PAX6, GATA2, BMP4 and GATA3 (human H1 ES cells [1]; qRT-PCR (FIG. 4D)) | migration ability of day 3 cells (H1-derived cells) | endoderm marker expression (human H1 ES cells [2]; Example 1: 100 ng/ml Activin A, 2 μM RepSox, 3 days (FIG. 4B-E)) | ectodermal markers SOX1 and PAX6 (human H1 ES cells [2]; RepSox treated cells, day 3 (FIG. 4C)) | EMT and formation of DE (human H1 ES cells [2]; day 3, Activin A treated hESCs, RepSox added, single cell-qPCR (FIG. 4C)) | expression of POU5F1 and NANOG (human H1 ES cells [2]; day 3 Activin A cells treated with RepSox (FIG. 4C)) | expression of CDH1 and SOX2 (human H1 ES cells [2]; day 3 Activin A cells treated with RepSox, compared with hESCs (FIG. 4C)) | induction of SOX17 expression (human H1 ES cells [2]; day 3 Activin A-treated cells (FIG. 4C)) | TGFβ protein in the culture media (TGFβ) | TGFB1 gene expression (human H1 ES cells [1]; qRT-PCR, day 3 (FIG. 6))
Cc1cccc(-c2[nH]ncc2-c2ccc3ncccc3n2)n1 [RepSox] | maintaining the expression of CDH1 | blocked the expression | blocked the expression of mesendoderm/endoderm markers | mildly up-regulated | less motile | no endoderm marker is expressed | slightly induced | not only blocked the EMT but also the formation of DE | continued to express POU5F1 and NANOG | maintained the expression of CDH1 and SOX2 at the same level as hESCs | blocked its induction completely |  | 
B1 |  |  |  |  |  |  |  |  |  |  |  | 1.5 ng/mL | robust activation
